# Reference: PubChem BioAssay AID1918957 (Molecular Pharmacology Branch, DTP, NCI, 2023)
# Test system: NCI-H1876 complex spheroid viability
# Test: Anticancer human tumor NCI-H1876 cell line growth inhibition [LSD1];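 note: spheroids exposed to compounds for one week before readout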;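 for viability, T/C: 100% = DMSO vehicle-treated spheroids so lower means fewer viable cells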
# Details: for IC50: curve of first compound; for viability, T/C: stronger effect = lower value
# From the text: Multicellular complex tumor spheroid response to LSD1 Inhibitor Iadademstat in combination with a variety of drugs and investigational agents in selected tumor cell lines
# The current study was undertaken to assess response to LSD1 inhibitors in combination with standard-of-care drugs and investigational agents in solid tumor complex spheroid models as well as in the K-562 leukemia. Complex spheroids include a stromal component modeled by human endothelial cells (HUVEC) and fibroblasts modeled by human mesenchymal stem cells (MSCs). The concentration ranges selected for each drug and investigational agent were based upon clinically achievable concentrations if the clinical Cmax of the agent was known.
# Compounds. The drugs and investigational agents used in this study are listed on Table 1. All of the agents used, including staurosporine (NSC755774) and gemcitabine (NSC613327), were obtained from the Developmental Therapeutics Program, NCI. FDA-approved anticancer drugs are available from the NCI at http://dtp.nci.nih.gov/branches/dscb/oncology_drugset_explanation.html. Drugs and investigational agents were >95% pure by proton nuclear magnetic resonance (NMR) and liquid chromatography/mass spectrometry (LC/MS). Stock solutions were prepared at 400x in DMSO, stored at -70 degrees C, and diluted in fresh medium prior to their use. The final concentration of DMSO in cell culture wells never exceeded 0.25% (v/v). The FDA-approved anticancer drug set is available from the Developmental Therapeutics Program at https://dtp.cancer.gov/organization/dscb/obtaining/available_plates.htm. All drugs and investigational agents were tested over a range starting from a high concentration at or near the clinical Cmax and decreasing in half-log increments. If the clinical Cmax for an agent had not been determined, the highest concentration tested was 10 microM.
# Cell Lines. The patient-derived cancer cell (PDC) lines: 292921-168-R-J2-PDC, K24384-001-R-PDC, and 521955-158-R2-J5-PDC pancreatic carcinomas, 556581-035-R-J1 ovarian carcinoma, 324938-238-R-J1-PDC, 855422-203-R-J1-PDC and 883617-216-R-J1-PDC urothelial bladder carcinomas, 743489-274-T-PDC renal cell carcinoma, 138582-R-J1 Merkel cell tumor, K60290-347-R-J1 and K57222-313-R-J1-PDC glioblastomas, 653999-131-R-J2-PDC, LG0703-F948-PDC, and 349418-098-R-PDC non-small cell lung carcinomas, 885512-296-R-J2-PDC, 171881-019-R-J1-PDC breast carcinomas and 186277-243-T-J2-PDC and 233499-124-R-J2-PDC colon carcinomas were obtained from the NCI Patient-Derived Models Repository (PDMR, https://pdmr.cancer.gov). The established cell lines NCI/ADR-RES (RRID:CVCL_14520 and OVCAR-5 (RRID:CVCL_1628) ovarian carcinomas, 786-O (RRID:CVCL_1051) and A498 (RRID:CVCL_A498) renal cell carcinoma, NCI-H211 (ATCC, cat. CRL-5824; RRID:CVCL_1529), NCI-H196 (ATCC, cat. CRL-5823, RRID:CVCL_1509), SW 1271 (ATCC, cat. CRL-2177, RRID:CVCL_1716) and NCI-H1876 (ATCC, cat. CRL-5902, RRID:CVCL_1503) small cell lung carcinomas, MDA-MB-231 (RRID:CVCL_0062) and MDA-MB-468 (RRID:CVCL_0419)breast carcinomas (10-12). Pooled donor human umbilical vein endothelial cells (HUVEC, Lonza, cat. CC-2519) and human mesenchymal stem cells (hMSC, Lonza, cat. PT-2501) were purchased from Lonza (Walkersville, MD).
# Cell Culture. All cells were maintained in an incubator at 37 degrees C and 5% CO2 with 95% humidity. The PDC lines were cultured according to standard operating procedures established by the NCI PDMR (https://pdmr.cancer.gov). Briefly all PDCs were thawed and cultured in Matrigel-coated flasks prepared with a working solution of 1X Ham's F-12 nutrient mix, without supplementation (Invitrogen, Waltham, MA, cat. 11765054), 100 U/mL penicillin-streptomycin (Invitrogen, cat. 15140122), and 2.5% Matrigel (Corning Inc., Corning, NY, cat. 354248) for the first three passages. […]
# [1] = second compound 0.1 µM, first compound 0.000316 µM
# [2] = second compound 0.1 µM, first compound 0.001 µM
# [3] = second compound 0.1 µM, first compound 0.00316 µM
# [4] = second compound 0.1 µM, first compound 0.01 µM
# [5] = second compound 0.1 µM, first compound 0.0316 µM
# [6] = second compound 0.1 µM, first compound 0.1 µM
# [7] = second compound 0.316 µM, first compound 0.000316 µM
# [8] = second compound 0.316 µM, first compound 0.001 µM
# [9] = second compound 0.316 µM, first compound 0.00316 µM
# [10] = second compound 0.316 µM, first compound 0.01 µM
# [11] = second compound 0.316 µM, first compound 0.0316 µM
# [12] = second compound 0.316 µM, first compound 0.1 µM
# [13] = second compound 1 µM, first compound 0.000316 µM
# [14] = second compound 1 µM, first compound 0.001 µM
# [15] = second compound 1 µM, first compound 0.00316 µM
# [16] = second compound 1 µM, first compound 0.01 µM
# [17] = second compound 1 µM, first compound 0.0316 µM
# [18] = second compound 1 µM, first compound 0.1 µM
# [19] = second compound 3.16 µM, first compound 0.000316 µM
# [20] = second compound 3.16 µM, first compound 0.001 µM
# [21] = second compound 3.16 µM, first compound 0.00316 µM
# [22] = second compound 3.16 µM, first compound 0.01 µM
# [23] = second compound 3.16 µM, first compound 0.0316 µM
# [24] = second compound 3.16 µM, first compound 0.1 µM
# [25] = second compound 10 µM, first compound 0.000316 µM
# [26] = second compound 10 µM, first compound 0.001 µM
# [27] = second compound 10 µM, first compound 0.00316 µM
# [28] = second compound 10 µM, first compound 0.01 µM
# [29] = second compound 10 µM, first compound 0.0316 µM
# [30] = second compound 10 µM, first compound 0.1 µM
structure (smiles),measurement,setting,value
Nc1ccccc1NC(=O)c1ccc(CNC(=O)OCc2cccnc2)cc1 + NC1CCC(NC2CC2c2ccccc2)CC1,IC50,second compound 0.1 µM,186 nM
same,IC50,second compound 0.316 µM,177 nM
same,IC50,second compound 1 µM,185 nM
same,IC50,second compound 3.16 µM,170 nM
same,IC50,second compound 10 µM,179 nM
same,"viability, T/C","second compound 0.1 µM, first compound 0.00949 µM",98.5%
same,"viability, T/C","second compound 0.1 µM, first compound 0.03 µM",109%
same,"viability, T/C","second compound 0.1 µM, first compound 0.0949 µM",90.6%
same,"viability, T/C","second compound 0.1 µM, first compound 0.3 µM",21.2%
same,"viability, T/C","second compound 0.1 µM, first compound 0.949 µM",4.45%
same,"viability, T/C","second compound 0.1 µM, first compound 3 µM",1.28%
same,"viability, T/C","second compound 0.316 µM, first compound 0.00949 µM",113%
same,"viability, T/C","second compound 0.316 µM, first compound 0.03 µM",108%
same,"viability, T/C","second compound 0.316 µM, first compound 0.0949 µM",78.3%
same,"viability, T/C","second compound 0.316 µM, first compound 0.3 µM",26.3%
same,"viability, T/C","second compound 0.316 µM, first compound 0.949 µM",3.15%
same,"viability, T/C","second compound 0.316 µM, first compound 3 µM",1.03%
same,"viability, T/C","second compound 1 µM, first compound 0.00949 µM",114%
same,"viability, T/C","second compound 1 µM, first compound 0.03 µM",115%
same,"viability, T/C","second compound 1 µM, first compound 0.0949 µM",86.2%
same,"viability, T/C","second compound 1 µM, first compound 0.3 µM",23.3%
same,"viability, T/C","second compound 1 µM, first compound 0.949 µM",11.6%
same,"viability, T/C","second compound 1 µM, first compound 3 µM",1.66%
same,"viability, T/C","second compound 3.16 µM, first compound 0.00949 µM",111%
same,"viability, T/C","second compound 3.16 µM, first compound 0.03 µM",104%
same,"viability, T/C","second compound 3.16 µM, first compound 0.0949 µM",80%
same,"viability, T/C","second compound 3.16 µM, first compound 0.3 µM",21.2%
same,"viability, T/C","second compound 3.16 µM, first compound 0.949 µM",2.36%
same,"viability, T/C","second compound 3.16 µM, first compound 3 µM",0.71%
same,"viability, T/C","second compound 10 µM, first compound 0.00949 µM",102%
same,"viability, T/C","second compound 10 µM, first compound 0.03 µM",102%
same,"viability, T/C","second compound 10 µM, first compound 0.0949 µM",86.5%
same,"viability, T/C","second compound 10 µM, first compound 0.3 µM",20.2%
same,"viability, T/C","second compound 10 µM, first compound 0.949 µM",10.6%
same,"viability, T/C","second compound 10 µM, first compound 3 µM",1.74%
Cn1ncnc1C1c2n[nH]c(=O)c3cc(F)cc(c23)NC1c1ccc(F)cc1 (stereo not given) + NC1CCC(NC2CC2c2ccccc2)CC1,IC50,second compound 0.1 µM,> 100 nM
same,IC50,second compound 0.316 µM,> 100 nM
same,IC50,second compound 1 µM,> 100 nM
same,IC50,second compound 3.16 µM,> 100 nM
same,IC50,second compound 10 µM,> 100 nM
same,"viability, T/C",[1],99.3%
same,"viability, T/C",[2],107%
same,"viability, T/C",[3],96.6%
same,"viability, T/C",[4],98.3%
same,"viability, T/C",[5],91.7%
same,"viability, T/C",[6],92%
same,"viability, T/C",[7],98%
same,"viability, T/C",[8],114%
same,"viability, T/C",[9],97.3%
same,"viability, T/C",[10],103%
same,"viability, T/C",[11],104%
same,"viability, T/C",[12],82.8%
same,"viability, T/C",[13],107%
same,"viability, T/C",[14],102%
same,"viability, T/C",[15],102%
same,"viability, T/C",[16],98%
same,"viability, T/C",[17],95.8%
same,"viability, T/C",[18],87.9%
same,"viability, T/C",[19],115%
same,"viability, T/C",[20],117%
same,"viability, T/C",[21],104%
same,"viability, T/C",[22],100%
same,"viability, T/C",[23],88.1%
same,"viability, T/C",[24],104%
same,"viability, T/C",[25],104%
same,"viability, T/C",[26],130%
same,"viability, T/C",[27],114%
same,"viability, T/C",[28],95%
same,"viability, T/C",[29],100%
same,"viability, T/C",[30],89.7%
CC(C)CC(NC(=O)CNC(=O)c1cc(Cl)ccc1Cl)B1OC(=O)CC(CC(=O)O)(C(=O)O)O1 (stereo not given) + NC1CCC(NC2CC2c2ccccc2)CC1,IC50,second compound 0.1 µM,9.07 nM
same,IC50,second compound 0.316 µM,8.75 nM
same,IC50,second compound 1 µM,7.91 nM
same,IC50,second compound 3.16 µM,7.93 nM
same,IC50,second compound 10 µM,7.52 nM
same,"viability, T/C",[1],94.5%
same,"viability, T/C",[2],109%
same,"viability, T/C",[3],104%
same,"viability, T/C",[4],45.1%
same,"viability, T/C",[5],8.77%
same,"viability, T/C",[6],0.58%
same,"viability, T/C",[7],98.2%
same,"viability, T/C",[8],108%
same,"viability, T/C",[9],104%
same,"viability, T/C",[10],43%
same,"viability, T/C",[11],7.91%
same,"viability, T/C",[12],17.4%
same,"viability, T/C",[13],99.3%
same,"viability, T/C",[14],97.2%
same,"viability, T/C",[15],96.2%
same,"viability, T/C",[16],38.2%
same,"viability, T/C",[17],9.23%
same,"viability, T/C",[18],7.49%
same,"viability, T/C",[19],105%
same,"viability, T/C",[20],112%
same,"viability, T/C",[21],99%
same,"viability, T/C",[22],36.5%
same,"viability, T/C",[23],18.1%
same,"viability, T/C",[24],0.81%
same,"viability, T/C",[25],99%
same,"viability, T/C",[26],104%
same,"viability, T/C",[27],93.9%
same,"viability, T/C",[28],35.5%
same,"viability, T/C",[29],15.6%
same,"viability, T/C",[30],13.8%
